Converted amounts (≈) assume the structure as drawn. Positions of bridges follow the written chain, without caps; N, C: chain ends. Non-standard residues stand in square brackets, D forms with d. Residues, ends and D or L forms follow the SMILES beside them. ξ: configuration not given here. *: point of attachment. Octanoyl(7-Me) = CC(C)CCCCCC(=O)*; Hexanoyl(4ξ-Me) = CCC(C)CCC(=O)*; dOrn = NCCC[C@@H](N)C(=O)O; Octanoyl = CCCCCCCC(=O)*; Orn = NCCC[C@H](N)C(=O)O; Dap = NC[C@H](N)C(=O)O; Alloc = C=CCOC(=O)*

The test system of data set [1] is HepG2 cells. Briefly: Cytotoxicity MTT assay. The settings on record: HepG2, 128 μg/mL, 24 h. As for the experimental part:
In addition to a single vehicle control, compounds (diluted from DMSO stock) were added to each well to obtain in a final 128 μg/mL concentration (max. final DMSO concentration 0.5%) for all compounds except for oritavancin which was administered at 50 μM. Incubation was done for 24 h at 37° C., 7% CO2. After the incubation, MTT was added to each well at a final concentration of 0.40 mg/mL. The plates were then incubated for 2 h at 37° C., 7% CO2. Medium was carefully removed via suction, and purple formazan crystals were resuspended in 100 μL DMSO. Absorbance was read at 570 nm using a Clariostar plate reader. The data was then analysed with GraphPad Prism software. Technical triplicates for each condition were used, along with biological duplicates.
In general terms: Tetrazolium dyes change colour on reduction, which living cells bring about.

Data set [2] relates to A. baumannii MDR. It counts as cell-based, Acinetobacter baumannii. The settings on record: A. baumannii MDR clinical isolate. As for the experimental part:
(§1) Minimum inhibitory concentration (MIC) was determined by broth microdilution according to CLSI guidelines. Blood agar plates were inoculated with glycerol stocks of Escherichia coli ATCC 25922, E. coli ATCC 25922 MCR-1, E. coli MCR-1 (clinical isolate from Utrecht Medical Center, NL), E. coli EQAS MCR-2 (clinical isolate from Wageningen University and Research, NL), Kiebsielia pneumoniae ATCC 11228, K. pneumoniae ATCC 13883, K. pneumonia 2048 (clinical isolate from Vrije Universiteit Amsterdam Medical Center, NL), K. pneumonia JS-123 (clinical isolate from Utrecht Medical Center, NL), Acinetobacter baumannii ATCC 17961, A. baumannil ATCC 17978, A. baumannii 2018-006 (clinical isolate from Rijksinstituut voor Volksgezondheid en Milieu, NL), A. baumannii MDR (clinical isolate from Vrije Universiteit Amsterdam Medical Center, NL), Pseudomonas aeruginosa ATCC 27853, P. aeruginosa PAO1, P. aeruginosa NRZ-03961 (Reference strain from Das Nationale Referenzzentrum für gramnegative Krankenhauserreger, DE), P. aeruginosa M-120 (clinical isolate from Leiden University Medical Center, NL) and Staphylococcus aureus USA300 (clinical isolate from Texas Children's Hospitalm, USA). E. coli 25922 MCR1 was grown on LB agar supplemented with kanamycin. The inoculated agar plates were then incubated for 16 hours at 37° C. Individually grown colonies were subsequently used to inoculate 3 mL aliquots of TSB that were then incubated at 37° C. with shaking at 220 rpm. In parallel, the compounds to be assessed were serially diluted with Mueller-Hinton broth (MHB) in polypropylene 96-well plates (50 μL in each well). Once the OD600 of the bacterial suspensions reached 0.5, the bacteria were diluted with MHB (final concentration 2×10^5 CFU mL^−1) and added to the microplates containing the test compounds (50 μL to each well, final volume: 100 μL). The well-plates were sealed with an adhesive membrane and after 16 hours of incubation at 37° C. with shaking at 220 rpm the wells were visually inspected for bacterial growth. MIC values were defined as the lowest concentration of the compound that prevented visible growth of bacteria.

Data set [3] deals with E. coli MCR-1. In kind it is cell-based, Escherichia coli. Conditions: E. coli MCR-1 clinical isolate (colistin resistant). Here is the method: as §1
(§2) In the table above, “MCR” denotes that one of the MCR family of genes, which confers colistin resistance, is present in the bacterial strain. Thus, E. coli ATCC 25922 MCR-1, E. coli MCR-1 and E. coli EQAS MCR-2 are each colistin resistant. […] Therefore, laterocidamide may overcome some of the challenges faced due to antibiotic resistance.

In data set [4] the test system is E. coli ATCC 25922 MCR-1. In kind it is cell-based, Escherichia coli. The settings on record: E. coli ATCC 25922 MCR-1 (colistin resistant). Here is the method:
as §1, §2

For data set [5], the system named is E. coli EQAS MCR-2. In kind it is cell-based, Escherichia coli. The settings on record: E. coli EQAS MCR-2 clinical isolate (colistin resistant). Here is the method: as §1, §2
In data set [6] the test system is E. Coli NCTC 12241. In kind it is cell-based. As for the experimental part: as §1
were tested for inhibition of E. Coli NCTC 12241.

The subject of data set [7] is E. coli. In kind it is cell-based. Here is the method: as §1
MIC values were determined for the lipid analogues of brevicidine.
MIC values were determined for the position 9 analogues of linear brevicidine.

In the case of `CCC(C)CCC(=O)N[C@H](CC(N)=O)C(=O)N[C@H](Cc1ccc(O)cc1)C(=O)N[C@H](Cc1c[nH]c2ccccc12)C(=O)N[C@H](CCCN)C(=O)N[C@@H](CCCN)C(=O)NCC(=O)N[C@H](CCCN)C(=O)N[C@@H](Cc1c[nH]c2ccccc12)C(=O)N[C@@H]1C(=O)N[C@@H]([C@@H](C)CC)C(=O)NCC(=O)N[C@@H](CO)C(=O)O[C@@H]1C` (stereo partly drawn) [Brevicidine, brevicidine, reference compound] ({Hexanoyl(4ξ-Me)}-[dN][dY][dW][dOrn][Orn]G[dOrn]WTIGS; ester 9-C), the “cytotoxicity / cell viability” value in data set [1] is given as “completely non-toxic”.

As to `CC[C@H](C)[C@@H]1NC(=O)[C@@H](NC(=O)[C@H](Cc2c[nH]c3ccccc23)NC(=O)[C@@H](CCCN)NC(=O)CNC(=O)[C@H](CCCN)NC(=O)[C@@H](CCCN)NC(=O)[C@@H](Cc2c[nH]c3ccccc23)NC(=O)[C@@H](Cc2ccc(O)cc2)NC(=O)[C@@H](CO)NC(=O)CCCCCC(C)C)[C@@H](C)OC(=O)CNC(=O)CNC(=O)[C@H](CC(N)=O)NC1=O` [Laterocidine, laterocidine, reference compound] ({Octanoyl(7-Me)}-[dS][dY][dW][dOrn][Orn]G[dOrn]WTINGG; ester 9-C), in data set [1], the “cytotoxicity / cell viability” value is on record as “completely non-toxic”. The “Minimum inhibitory concentration (MIC)” value in data set [2] was determined as 1 µg/mL (≈ 0.623 µM); in data set [3], 0.5 µg/mL (≈ 0.312 µM); in data set [4], 2 µg/mL (≈ 1.25 µM); in data set [5], 1 µg/mL (≈ 0.623 µM).

Regarding `C=CCOC(=O)NC[C@H](NC(=O)[C@H](Cc1c[nH]c2ccccc12)NC(=O)[C@@H](CCCN)NC(=O)CNC(=O)[C@H](CCCN)NC(=O)[C@@H](CCCN)NC(=O)[C@@H](Cc1c[nH]c2ccccc12)NC(=O)[C@@H](Cc1ccc(O)cc1)NC(=O)[C@@H](CC(N)=O)NC(=O)CCC(C)CC)C(=O)N[C@H](C(=O)NCC(N)=O)[C@@H](C)CC` (stereo partly drawn) [MeHex- Dap(Alloc) NH2] ({Hexanoyl(4ξ-Me)}-[dN][dY][dW][dOrn][Orn]G[dOrn]W[Dap](Alloc)IG-NH2), in data set [6], the “E. coli MIC” value stood at 0.19 µg/mL.

For `C=CCOC(=O)NC[C@H](NC(=O)[C@H](Cc1c[nH]c2ccccc12)NC(=O)[C@@H](CCCN)NC(=O)CNC(=O)[C@H](CCCN)NC(=O)[C@@H](CCCN)NC(=O)[C@@H](Cc1c[nH]c2ccccc12)NC(=O)[C@@H](Cc1ccc(O)cc1)NC(=O)[C@@H](CC(N)=O)NC(=O)CCC(C)CC)C(=O)N[C@H](C(=O)NCC(=O)O)[C@@H](C)CC` (stereo partly drawn) [MeHex- Dap(Alloc) OH] ({Hexanoyl(4ξ-Me)}-[dN][dY][dW][dOrn][Orn]G[dOrn]W[Dap](Alloc)IG-OH), the “E. coli MIC” value in data set [6] was found to be 1.6 µg/mL.

With `C=CCOC(=O)NC[C@H](NC(=O)[C@H](Cc1c[nH]c2ccccc12)NC(=O)[C@@H](CCCN)NC(=O)CNC(=O)[C@H](CCCN)NC(=O)[C@@H](CCCN)NC(=O)[C@@H](Cc1c[nH]c2ccccc12)NC(=O)[C@@H](Cc1ccc(O)cc1)NC(=O)[C@@H](CC(N)=O)NC(=O)CCCCCCC)C(=O)N[C@H](C(=O)NCC(N)=O)[C@@H](C)CC` [Oct Dap(Alloc) NH2] (Octanoyl-[dN][dY][dW][dOrn][Orn]G[dOrn]W[Dap](Alloc)IG-NH2), the “E. coli MIC” value in data set [6] was determined as 0.4 µg/mL.

As to `CCCCCCCC(=O)N[C@H](CC(N)=O)C(=O)N[C@H](Cc1ccc(O)cc1)C(=O)N[C@H](Cc1c[nH]c2ccccc12)C(=O)N[C@H](CCCN)C(=O)N[C@@H](CCCN)C(=O)NCC(=O)N[C@H](CCCN)C(=O)N[C@@H](Cc1c[nH]c2ccccc12)C(=O)N[C@@H](C)C(=O)N[C@H](C(=O)NCC(=O)O)[C@@H](C)CC` [Oct- Ala OH] (Octanoyl-[dN][dY][dW][dOrn][Orn]G[dOrn]WAIG-OH), the “E. coli MIC” value in data set [6] was found to be 25 µg/mL.

For the compound `C=CCOC(=O)NC[C@H](NC(=O)[C@H](Cc1c[nH]c2ccccc12)NC(=O)[C@@H](CCCN)NC(=O)CNC(=O)[C@H](CCCN)NC(=O)[C@@H](CCCN)NC(=O)[C@@H](Cc1c[nH]c2ccccc12)NC(=O)[C@@H](Cc1ccc(O)cc1)NC(=O)[C@@H](CC(N)=O)NC(=O)CCCCCCC)C(=O)N[C@H](C(=O)NCC(=O)O)[C@@H](C)CC` [Oct- Dap(Alloc) OH] (Octanoyl-[dN][dY][dW][dOrn][Orn]G[dOrn]W[Dap](Alloc)IG-OH), the “E. coli MIC” value in data set [6] worked out at 12.5 µg/mL.

Consider `CC[C@H](C)[C@@H]1NC(=O)[C@@H](NC(=O)[C@H](Cc2c[nH]c3ccccc23)NC(=O)[C@@H](CCCN)NC(=O)CNC(=O)[C@H](CCCN)NC(=O)[C@@H](CCCN)NC(=O)[C@@H](Cc2c[nH]c3ccccc23)NC(=O)[C@@H](Cc2ccc(O)cc2)NC(=O)[C@@H](CO)NC(=O)CCCCCC(C)C)COC(=O)CNC(=O)CNC(=O)[C@H](CC(N)=O)NC1=O` [Ser9-Laterocidine] ({Octanoyl(7-Me)}-[dS][dY][dW][dOrn][Orn]G[dOrn]WSINGG; ester 9-C), for which the figures for the “Minimum inhibitory concentration (MIC)” value in data set [2], in data set [3] and in data set [4] were 2 µg/mL (≈ 1.26 µM), 0.5 µg/mL (≈ 0.314 µM) and 0.5 µg/mL (≈ 0.314 µM), respectively.

On to `CCC(C)CCC(=O)N[C@H](CC(N)=O)C(=O)N[C@H](Cc1ccc(O)cc1)C(=O)N[C@H](Cc1c[nH]c2ccccc12)C(=O)N[C@H](CCCN)C(=O)N[C@@H](CCCN)C(=O)NCC(=O)N[C@H](CCCN)C(=O)N[C@@H](Cc1c[nH]c2ccccc12)C(=O)N[C@@H](CN)C(=O)N[C@H](C(=O)NCC(N)=O)[C@@H](C)CC` (stereo partly drawn) [Und(9-Dap)-NH2] ({Hexanoyl(4ξ-Me)}-[dN][dY][dW][dOrn][Orn]G[dOrn]W[Dap]IG-NH2), for which the “E. coli MIC” value in data set [7] and in data set [6] was 3.1 µg/mL throughout.

For the compound `CCC(C)CCC(=O)N[C@H](CC(N)=O)C(=O)N[C@H](Cc1ccc(O)cc1)C(=O)N[C@H](Cc1c[nH]c2ccccc12)C(=O)N[C@H](CCCN)C(=O)N[C@@H](CCCN)C(=O)NCC(=O)N[C@H](CCCN)C(=O)N[C@@H](Cc1c[nH]c2ccccc12)C(=O)N[C@@H](CO)C(=O)N[C@H](C(=O)NCC(N)=O)[C@@H](C)CC` (stereo partly drawn) [Und(9-Ser)-NH2] ({Hexanoyl(4ξ-Me)}-[dN][dY][dW][dOrn][Orn]G[dOrn]WSIG-NH2), the “E. coli MIC” value in data set [7] and in data set [6] was 0.78 µg/mL throughout.

Take `CCC(C)CCC(=O)N[C@H](CC(N)=O)C(=O)N[C@H](Cc1ccc(O)cc1)C(=O)N[C@H](Cc1c[nH]c2ccccc12)C(=O)N[C@H](CCCN)C(=O)N[C@@H](CCCN)C(=O)NCC(=O)N[C@H](CCCN)C(=O)N[C@@H](Cc1c[nH]c2ccccc12)C(=O)N[C@H](C(=O)N[C@H](C(=O)NCC(N)=O)[C@@H](C)CC)[C@@H](C)O` (stereo partly drawn) [Und(9-Thr)-NH2] ({Hexanoyl(4ξ-Me)}-[dN][dY][dW][dOrn][Orn]G[dOrn]WTIG-NH2): the “E. coli MIC” value in data set [7] and in data set [6] was 1.56 µg/mL in each case.

Regarding `CC[C@@H](C)[C@H]1NC(=O)[C@H](NC(=O)[C@@H](Cc2c[nH]c3ccccc23)NC(=O)[C@H](CCCN)NC(=O)CNC(=O)[C@@H](CCCN)NC(=O)[C@H](CCCN)NC(=O)[C@H](Cc2c[nH]c3ccccc23)NC(=O)[C@H](Cc2ccc(O)cc2)NC(=O)[C@H](CO)NC(=O)CCCCCC(C)C)[C@H](C)OC(=O)CNC(=O)CNC(=O)[C@@H](CC(N)=O)NC1=O` [ent- Laterocidine] ({Octanoyl(7-Me)}-SYW[Orn][dOrn]G[Orn][dW][dT][dI][dN]GG; ester 9-C), the “Minimum inhibitory concentration (MIC)” value in data set [2] lay in the range of 4 to 8 µg/mL; in data set [3], 8 to 16 µg/mL; in data set [4], 8 to 16 µg/mL; in data set [5], 8 to 16 µg/mL.
